Earlier results as cited in patent publication US20020122815A1, “Compositions and methods of carbohydrate dosing” (priority 2001, published 2002).

What was measured:
serum glucose levels [1] = details: compared with glucose or sucrose
[2] = in large amounts
serum glucose levels [3] = details: serum glucose response to 50 g carbohydrate as percentage of standard meal (usually 50 g glucose)

SMILES	rise in serum glucose (serum glucose levels [1])	adverse effect [2]	Glycemic Index (serum glucose levels [3])
OC[C@@H](O)[C@@H](O)[C@H](O)[C@H](O)CO [Mannitol]	less of a rise in serum glucose than glucose or sucrose	may cause diarrhea	
O=C(CO)[C@@H](O)[C@H](O)[C@H](O)CO [fructose]			23
OC[C@@H](O)[C@@H](O)[C@H](O)[C@@H](O)CO [sorbitol]	less of a rise in serum glucose than glucose or sucrose	may cause diarrhea	
OC[C@H]1O[C@@](CO)(O[C@H]2O[C@H](CO)[C@@H](O)[C@H](O)[C@H]2O)[C@@H](O)[C@@H]1O [sucrose]			60-65
